From patent US10993923B2, “Method for ameliorating fibrosis using 1-[4-chloro-3-(trifluoromethyl)phenyl]-3-[3-(4-cyanophenoxy)phenyl]urea” (priority 2016, dated 2021)

Assays:
LX2 cells = assay: Apoptosis (Annexin V / propidium iodide flow cytometry), LX2 cells; assay type: cell-based, human; conditions: LX2; FIG. 16D, 16E
Protocol: Rat immortal hepatic stellate cell line HSC-T6 and LX2 human hepatic stellate cell line were provided by Professor Scott Friedman of Mount Sinai Hospital in New York, USA. The primary mouse HSCs were obtained via the way: after intubating the hepatic portal vein of the mouse, the cells were perfused with […] and ethylene glycol bis-aminoethyl ether tetraacetic acid (EGTA) buffer in situ, and then collagenase was injected to digest the liver tissue, and then the primary mouse HSCs were isolated by Histodnz gradient. HSC-T6 cells were cultured in Waymouth medium; LX2 cells and primary mouse HSCs were cultured in Dulbecco's Modified Eagle Medium (DMEM) containing 10% fetal bovine serum (FBS), 100 μg/mL penicillin, 100 μg/mL streptomycin, and 2 mM L-glutamine HSC-T6 cells, LX2 cells and primary mouse HSCs were cultured in a humidified incubator containing 5% carbon dioxide at 37° C. After adding the FBS, the resting HSC is started. […] The experiment was carried out following the manufacturer's instructions, and each group was triple repetition. […] The proportion of apoptotic cells was mixed the early (Annexin V+/PI-) and the late (Annexin V+/PI+) apoptotic cells measured by BD FACS Verse flow cytometry (BD, USA). Plasmids encoding the human wild-type SHP-1 and SHP-1 mutant, in which the N-SH2 domain was […] was changed into an […]) were cloned into the pCMV6-entry vector with myc-tag. These mutants were confirmed through DNA sequencing. […] (Chicago, Ill., USA).

[1] = test system: TGF-β, PDGFR and STAT3 pathways in LX2 cells; assay: Western blot of signalling proteins in LX2 cells; assay type: cell-based, human; conditions: FIG. 16D, 16E
Protocol: Rat immortal hepatic stellate cell line HSC-T6 and LX2 human hepatic stellate cell line were provided by Professor Scott Friedman of Mount Sinai Hospital in New York, USA. The primary mouse HSCs were obtained via the way: after intubating the hepatic portal vein of the mouse, the cells were perfused with […] and ethylene glycol bis-aminoethyl ether tetraacetic acid (EGTA) buffer in situ, and then collagenase was injected to digest the liver tissue, and then the primary mouse HSCs were isolated by Histodnz gradient. HSC-T6 cells were cultured in Waymouth medium; LX2 cells and primary mouse HSCs were cultured in Dulbecco's Modified Eagle Medium (DMEM) containing 10% fetal bovine serum (FBS), 100 μg/mL penicillin, 100 μg/mL streptomycin, and 2 mM L-glutamine HSC-T6 cells, LX2 cells and primary mouse HSCs were cultured in a humidified incubator containing 5% carbon dioxide at 37° C. After adding the FBS, the resting HSC is started. […] Whole-cell extracts were obtained via RIPA buffer (Millipore, USA) and protein concentrations were quantified via a BCA protein assay kit (Thermo Fisher Scientific, USA). 20 or 25 μg of protein was added to various percentages of SDS-sodium dodecyl sulfate-acrylamide gel and blotted onto a polyvinylidene fluoride (PVDF) membrane. […] Proteins were detected by Immobilon Western Chemiluminescent HRP substrate (Millipore, USA) or ECL detection system (UVP Corporation, USA). […] Plasmids encoding the human wild-type SHP-1 and SHP-1 mutant, in which the N-SH2 domain was […] was changed into an […]) were cloned into the pCMV6-entry vector with myc-tag. These mutants were confirmed through DNA sequencing. […] (Chicago, Ill., USA).

[2] = test system: CCl4-induced hepatic fibrosis in mice; assay: CCl4-induced hepatic fibrosis mice prevention model; assay type: in vivo, male C57BL/6J mice; conditions: concurrently administered with CCl4 for 4 weeks; FIG. 11A-11E
Excerpt: (§1) In male C57BL/6J mice, liver fibrosis was induced by carbon tetrachloride (CCl4). The mice were given peritoneal injection of carbon tetrachloride for 4 or 8 weeks every two weeks.
(§2) The mice liver samples were stored in 10% formaldehyde, dehydrated with gradient alcohol, embedded in paraffin blocks, sectioned to a thickness of 3 μm, placed on glass slides, and stained with Picrosirius Red Stain kit (ScyTek, USA), following the manufacturer's instructions. The severity of liver fibrosis was graded according to the Ishak fibrosis score. Quantitative collagen-positive area (qCPA) was determined by densitometry via ImageJ software. Hepatic hydroxyproline concentrations were measured by the hydroxyproline assay kit (Biovision, USA), following the manufacturer's instructions Immunohistochemistry was performed by the Leica BOND-MAX automatic chromatograph (Leica Biosystems, Germany), following the manufacturer's instructions.

SHP-1 [3] = molecular target: T1, SHP-1 (Rattus norvegicus, UniProt P81718); assay: SHP-1 phosphatase activity, HSC-T6 cells; assay type: cell-based; conditions: sorafenib 5 μM, compound 2.5 or 5 μM, FIG. 16C
T1 construct: endogenous in cells; host or cells: HSC-T6 cells

[4] = test system: CCl4-induced hepatic fibrosis in mice; assay: CCl4-induced hepatic fibrosis mice treatment model; assay type: in vivo, male C57BL/6J mice; conditions: compound 5, 10, or 20 mg/kg or sorafenib 10 mg/kg, with CCl4 for 6 weeks after 2 weeks CCl4 induction; FIG. 12A
Excerpt: as §1, §2
Continuous variables are presented as mean (standard error), and categorical data are presented as number (percentage), as appropriate. Differences between subgroups were evaluated using the Student t test. Spearman's correlation was used for the association between SHP-1 and serum alanine aminotransferase (ALT). The mouse survival rate was estimated using the Kaplan-Meier method. The log-rank test was used to determine the statistical differences in survival of the different experimental groups. Statistical analysis was performed using STATA (version 13, Stata Corp, College Station, Tex., USA). All tests were two-sided, and P<0.05 was considered significant.

SHP-1 [5] = molecular target: T2, SHP-1 (Homo sapiens, UniProt P29350); assay: SHP-1 phosphatase activity, LX2 cells; assay type: cell-based; conditions: LX2; sorafenib 5 μM, compound 2.5 or 5 μM; FIG. 16C
T2 construct: LX2 cell protein extract were reacted with anti-SHP-1 antibody in immunoprecipitation buffer overnight; endogenous in cells; host or cells: LX2 cells
Protocol: After drug treatment, mouse fibroblasts (NIH3T3 cell line), human lung epithelial cells (A549 cell line) or LX2 cell protein extract were reacted with anti-SHP-1 antibody in immunoprecipitation buffer overnight. Protein A/G Sepharose Fast Flow Beads (GE) were added to each sample, followed by a rotation reaction at 4° C. for 3 hours. The 96EnzChek® tyrosine phosphatase assay kit (R-22067) was used for SHP-1 activity assay (Invitrogen, USA).
Plasmids encoding the human wild-type SHP-1 and SHP-1 mutant, in which the N—SH2 domain was truncated (dN1) or one aspartic acid at site 61 was changed into an alanine residue (D61A) were cloned into the pCMV6-entry vector with myc-tag. These mutants were confirmed through DNA sequencing. Smart-pool siRNA, including the control (D-001810-10), and SHP-1 (PTPN6, L-009778-00-0005) were obtained from Dharmacon Inc. (Chicago, Ill., USA). For transient expression, SHP-1 plasmids or siRNA (final concentration, 100 nM) with the Lipofectamine 2000 transfection reagent were pretransfected into the LX2 cells for 24 h, following the manufacturer's instructions.

T1 sequence (P81718 whole entry): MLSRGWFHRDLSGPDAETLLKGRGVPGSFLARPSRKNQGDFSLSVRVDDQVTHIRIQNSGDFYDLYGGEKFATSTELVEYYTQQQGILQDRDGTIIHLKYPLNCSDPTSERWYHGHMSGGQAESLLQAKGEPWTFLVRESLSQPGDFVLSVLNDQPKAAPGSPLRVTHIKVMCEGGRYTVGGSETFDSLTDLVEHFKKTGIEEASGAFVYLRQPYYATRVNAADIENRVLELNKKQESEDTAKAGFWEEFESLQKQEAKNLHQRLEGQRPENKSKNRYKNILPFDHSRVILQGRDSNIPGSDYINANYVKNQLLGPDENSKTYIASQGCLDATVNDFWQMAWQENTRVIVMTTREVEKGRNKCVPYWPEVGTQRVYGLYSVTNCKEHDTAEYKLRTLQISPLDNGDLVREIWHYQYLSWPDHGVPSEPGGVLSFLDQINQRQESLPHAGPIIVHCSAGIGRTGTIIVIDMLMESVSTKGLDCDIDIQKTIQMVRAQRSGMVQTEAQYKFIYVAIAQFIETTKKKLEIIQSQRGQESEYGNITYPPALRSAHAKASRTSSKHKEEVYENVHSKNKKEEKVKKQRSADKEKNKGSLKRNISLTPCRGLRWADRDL
T2 sequence (P29350 whole entry): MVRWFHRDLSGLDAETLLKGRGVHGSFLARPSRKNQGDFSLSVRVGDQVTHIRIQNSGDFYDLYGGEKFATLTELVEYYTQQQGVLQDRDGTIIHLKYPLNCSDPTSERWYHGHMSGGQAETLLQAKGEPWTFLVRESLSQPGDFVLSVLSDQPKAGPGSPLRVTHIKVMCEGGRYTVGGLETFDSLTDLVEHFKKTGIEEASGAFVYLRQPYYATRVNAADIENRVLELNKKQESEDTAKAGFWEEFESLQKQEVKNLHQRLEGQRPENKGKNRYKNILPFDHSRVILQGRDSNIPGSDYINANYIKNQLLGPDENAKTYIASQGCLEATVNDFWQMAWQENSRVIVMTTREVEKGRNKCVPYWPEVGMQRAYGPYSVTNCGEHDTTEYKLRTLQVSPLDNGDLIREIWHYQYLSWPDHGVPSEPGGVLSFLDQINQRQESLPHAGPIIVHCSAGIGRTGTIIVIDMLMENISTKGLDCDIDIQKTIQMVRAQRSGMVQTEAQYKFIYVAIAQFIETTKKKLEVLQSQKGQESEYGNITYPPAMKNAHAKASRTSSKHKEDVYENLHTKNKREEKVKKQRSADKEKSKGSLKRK

| SHP-1 activity (SHP-1 [3]) | SHP-1 activity (SHP-1 [5]) | Compound | compound-induced apoptosis of LX2 cells in the presence of a phosphatase inhibitor (LX2 cells) | p-STAT3 in compound-treated LX2 cells in the presence of a phosphatase inhibitor [1] | hepatic fibrosis (Picrosirius Red staining, qCPA, Ishak fibrosis score, α-SMA expression, hydroxyproline concentration) [2] | hepatic fibrosis (picrosirius red staining) [4] |
| --- | --- | --- | --- | --- | --- | --- |
|  |  | O=C(O)COc1ccc(C(=O)CBr)cc1 [PTP inhibitor III, reference compound] | rescued | upregulated |  |  |
| increases the activity of SHP-1 | increases the activity of SHP-1 | CNC(=O)c1cc(Oc2ccc(NC(=O)Nc3ccc(Cl)c(C(F)(F)F)c3)cc2)ccn1 [sorafenib, reference compound] |  |  | significant fibrosis regression | significantly improved hepatic fibrosis |
|  |  | Sodium vanadate [reference compound] | rescued | upregulation |  |  |
